Measured values from US20080009418A1, “Selective Inhibitors” (Alchemia LTD., priority 2004, published 2008).

Assays:
[1] = target: T1, Human δ-opioid (DOP) (Homo sapiens, UniProt P41143); assay: Radioligand binding, human δ-opioid (DOP) membranes, FlashPlate, [3H]-Bremazocine; conditions: compound at 10 μM, [3H]-Bremazocine; for A1: inhibition of radioligand binding: FlashPlate
T1 construct: purchased Perkin Elmer Biosignal
Summary of the method: (§1)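 Cloned human receptor membranes were coated onto FlashPlate wells and incubated with radioligand and compound (added from a 0.5 mM DMSO daughter plate) for 1 hour at room temperature in the dark. Scintillation counting gave percent inhibition, with DMSO defining total and reference ligand defining non-specific binding.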

[2] = target: T2, Human κ-Opioid (KOP) (Homo sapiens, UniProt P41145); assay: Radioligand binding, human κ-opioid (KOP) membranes, filtration, [3H]-Diprenorphine; conditions: compound at 10 μM, [3H]-Diprenorphine; for A2: inhibition of radioligand binding: filtration
T2 construct: purchased Perkin Elmer Biosignal
Summary of the method: (§2)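 Membranes from cloned human receptors were incubated with compound and radioligand for 1 hour at room temperature. Bound ligand was collected on 0.3% PEI-soaked filters, washed with cold 50 mM Tris-HCl pH 7.4, and counted by scintillation. Percent inhibition was computed against DMSO totals and reference-ligand nonspecific wells.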

[3] = target: T3, Human Melanocortin (MC3) (Homo sapiens, UniProt P41968); assay: Radioligand binding, human melanocortin MC3 membranes, FlashPlate, [125I]-NDP-αMSH; conditions: compound at 10 μM, [125I]-NDP-αMSH; for A3: inhibition of radioligand binding: FlashPlate
T3 construct: purchased Perkin Elmer Biosignal
Summary of the method: as §1

[4] = target: T4, Human Melanocortin (MC4) (Homo sapiens, UniProt P32245); assay: Radioligand binding, human melanocortin MC4 membranes, FlashPlate, [125I]-NDP-αMSH; conditions: compound at 10 μM, [125I]-NDP-αMSH; for A4: inhibition of radioligand binding: FlashPlate
T4 construct: purchased Perkin Elmer Biosignal
Summary of the method: as §1

[5] = target: T5, Human melanocortin (MC5) (Homo sapiens, UniProt P33032); assay: Radioligand binding, human melanocortin MC5 membranes, FlashPlate, [125I]-NDP-αMSH; conditions: compound at 10 μM, [125I]-NDP-αMSH; for A5: inhibition of radioligand binding: FlashPlate
T5 construct: purchased Perkin Elmer Biosignal
Summary of the method: as §1

[6] = target: T6, Human melanin-concentrating hormone (MCH1) (Homo sapiens, UniProt Q99705); assay: Radioligand binding, human melanin-concentrating hormone MCH1 membranes, FlashPlate, [125I]-S36057; conditions: compound at 10 μM; for A6: inhibition of radioligand binding: [125I]-S36057, FlashPlate
T6 construct: purchased Perkin Elmer Biosignal
Summary of the method: as §1

[7] = target: T7, Human μ-opioid (MOP) (Homo sapiens, UniProt P35372); assay: Radioligand binding, human μ-opioid (MOP) membranes, FlashPlate, [3H]-Naloxone; conditions: compound at 10 μM, [3H]-Naloxone; for A7: inhibition of radioligand binding: FlashPlate
T7 construct: purchased Perkin Elmer Biosignal
Summary of the method: as §1

[8] = target: T8, Human neurokinin (NK1) (Homo sapiens, UniProt P25103); assay: Radioligand binding, human neurokinin NK1 membranes, filtration, [125I]-Substance P; conditions: compound at 10 μM, [125I]-Substance P; for A8: inhibition of radioligand binding: filtration
T8 construct: purchased Perkin Elmer Biosignal
Summary of the method: as §2

[9] = target: T9, Human neuropeptide Y (NPY-Y1) (Homo sapiens, UniProt P25929); assay: Radioligand binding, human neuropeptide Y NPY-Y1 membranes, FlashPlate, [125I]-PYY; conditions: compound at 10 μM, [125I]-PYY; for A9: inhibition of radioligand binding: FlashPlate
T9 construct: purchased Perkin Elmer Biosignal
T9 sequence (P25929 1-384): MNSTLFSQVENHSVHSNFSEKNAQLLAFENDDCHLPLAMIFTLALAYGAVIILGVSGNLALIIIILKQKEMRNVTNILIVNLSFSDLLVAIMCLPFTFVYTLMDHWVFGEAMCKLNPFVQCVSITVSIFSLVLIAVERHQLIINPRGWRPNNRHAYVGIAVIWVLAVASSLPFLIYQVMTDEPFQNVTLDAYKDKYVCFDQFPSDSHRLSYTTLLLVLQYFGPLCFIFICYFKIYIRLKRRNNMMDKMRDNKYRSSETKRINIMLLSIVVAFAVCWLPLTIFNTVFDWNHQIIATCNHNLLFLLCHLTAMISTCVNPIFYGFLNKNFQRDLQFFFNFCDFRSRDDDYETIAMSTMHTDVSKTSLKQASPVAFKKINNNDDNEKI
Summary of the method: as §1

[10] = target: T10, Human opioid (ORL1) (Homo sapiens, UniProt P41146); assay: Radioligand binding, human opioid ORL1 membranes, FlashPlate, [125I]-Nociceptin; conditions: compound at 10 μM, [125I]-Nociceptin; for A10: inhibition of radioligand binding: FlashPlate
T10 construct: purchased Perkin Elmer Biosignal
Summary of the method: as §1

[11] = target: T11, Mouse urotensin (mUR2) (Mus musculus, UniProt Q8VIH9); assay: Radioligand binding, mouse urotensin mUR2 membranes, FlashPlate, [125I]-Urotensin II; conditions: compound at 10 μM, [125I]-Urotensin II; for A11: inhibition of radioligand binding: FlashPlate
T11 construct: purchased Perkin Elmer Biosignal
T11 sequence (Q8VIH9 1-385): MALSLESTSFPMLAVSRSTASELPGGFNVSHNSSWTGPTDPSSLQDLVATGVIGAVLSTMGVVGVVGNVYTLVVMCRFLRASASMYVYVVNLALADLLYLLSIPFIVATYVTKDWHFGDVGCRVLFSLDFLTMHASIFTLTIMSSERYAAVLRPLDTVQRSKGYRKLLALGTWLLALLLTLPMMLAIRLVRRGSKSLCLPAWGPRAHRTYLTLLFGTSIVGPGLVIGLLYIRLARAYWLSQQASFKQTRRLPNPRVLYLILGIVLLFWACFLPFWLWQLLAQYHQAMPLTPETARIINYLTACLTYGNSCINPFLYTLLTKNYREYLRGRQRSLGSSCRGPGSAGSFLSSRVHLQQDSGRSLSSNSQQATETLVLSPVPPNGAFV
Summary of the method: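 Cloned mouse urotensin (mUR2) receptor membranes from Perkin Elmer Biosignal were immobilized in FlashPlate microplates using a proprietary coating. Each well got 19.5 μl buffer, then 0.5 μl of DMSO, reference ligand, or compound. Adding 5 μl of [125I]-Urotensin II, diluted to 5× final concentration in binding buffer, started binding. Plates were sealed with TopSeal-A and incubated 1 hour at room temperature in the dark. Wells were counted for 30 seconds each on a TopCount after a 60-second delay, and percentage inhibition was calculated.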

T4 sequence (P32245 whole entry): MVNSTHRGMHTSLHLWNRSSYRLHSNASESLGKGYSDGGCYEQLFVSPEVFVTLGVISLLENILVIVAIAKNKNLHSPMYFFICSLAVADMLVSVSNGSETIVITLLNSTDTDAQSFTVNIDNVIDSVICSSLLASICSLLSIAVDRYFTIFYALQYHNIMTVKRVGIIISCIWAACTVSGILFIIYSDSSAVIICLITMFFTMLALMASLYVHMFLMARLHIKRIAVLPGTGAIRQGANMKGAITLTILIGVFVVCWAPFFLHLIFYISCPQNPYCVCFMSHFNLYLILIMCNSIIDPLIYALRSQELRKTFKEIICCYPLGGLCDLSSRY
T10 sequence (P41146 whole entry): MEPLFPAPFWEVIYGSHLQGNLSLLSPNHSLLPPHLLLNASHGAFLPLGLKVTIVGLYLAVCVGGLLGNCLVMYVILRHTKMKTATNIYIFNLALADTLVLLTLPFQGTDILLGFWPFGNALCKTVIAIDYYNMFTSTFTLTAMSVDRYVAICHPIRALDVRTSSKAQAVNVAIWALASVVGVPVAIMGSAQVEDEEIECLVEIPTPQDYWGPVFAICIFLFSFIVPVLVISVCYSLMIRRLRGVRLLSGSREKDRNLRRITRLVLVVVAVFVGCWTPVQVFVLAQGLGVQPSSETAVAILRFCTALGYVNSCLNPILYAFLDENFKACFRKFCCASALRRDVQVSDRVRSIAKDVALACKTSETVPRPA
T5 sequence (P33032 whole entry): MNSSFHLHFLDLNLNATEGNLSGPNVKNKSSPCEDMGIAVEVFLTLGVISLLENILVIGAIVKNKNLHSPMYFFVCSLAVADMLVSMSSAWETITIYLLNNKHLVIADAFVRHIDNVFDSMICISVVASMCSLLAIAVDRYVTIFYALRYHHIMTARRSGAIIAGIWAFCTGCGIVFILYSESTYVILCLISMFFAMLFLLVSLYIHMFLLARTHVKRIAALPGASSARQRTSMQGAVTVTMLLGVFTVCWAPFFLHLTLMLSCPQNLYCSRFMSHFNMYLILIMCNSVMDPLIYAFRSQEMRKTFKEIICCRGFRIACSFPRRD
T7 sequence (P35372 whole entry): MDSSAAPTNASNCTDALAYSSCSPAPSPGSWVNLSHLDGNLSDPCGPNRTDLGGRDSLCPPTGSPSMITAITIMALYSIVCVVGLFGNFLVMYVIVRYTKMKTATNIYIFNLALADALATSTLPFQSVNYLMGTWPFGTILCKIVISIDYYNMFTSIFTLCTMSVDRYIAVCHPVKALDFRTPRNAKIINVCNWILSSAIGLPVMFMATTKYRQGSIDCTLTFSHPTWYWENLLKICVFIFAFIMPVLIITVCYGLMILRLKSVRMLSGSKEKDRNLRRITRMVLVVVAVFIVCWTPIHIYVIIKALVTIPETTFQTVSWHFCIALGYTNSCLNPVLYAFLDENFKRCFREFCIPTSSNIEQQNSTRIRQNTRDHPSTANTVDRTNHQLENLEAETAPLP
T8 sequence (P25103 whole entry): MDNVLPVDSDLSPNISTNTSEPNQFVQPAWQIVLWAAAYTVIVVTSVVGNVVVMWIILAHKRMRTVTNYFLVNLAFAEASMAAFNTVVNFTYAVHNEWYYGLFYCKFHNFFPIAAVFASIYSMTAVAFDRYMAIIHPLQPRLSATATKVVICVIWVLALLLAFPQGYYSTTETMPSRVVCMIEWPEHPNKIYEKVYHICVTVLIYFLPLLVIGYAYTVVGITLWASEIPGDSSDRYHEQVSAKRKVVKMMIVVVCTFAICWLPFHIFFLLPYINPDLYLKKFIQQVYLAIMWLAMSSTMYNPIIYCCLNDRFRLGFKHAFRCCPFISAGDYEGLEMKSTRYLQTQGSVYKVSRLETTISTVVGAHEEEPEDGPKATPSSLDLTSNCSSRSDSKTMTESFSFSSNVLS
T6 sequence (Q99705 whole entry): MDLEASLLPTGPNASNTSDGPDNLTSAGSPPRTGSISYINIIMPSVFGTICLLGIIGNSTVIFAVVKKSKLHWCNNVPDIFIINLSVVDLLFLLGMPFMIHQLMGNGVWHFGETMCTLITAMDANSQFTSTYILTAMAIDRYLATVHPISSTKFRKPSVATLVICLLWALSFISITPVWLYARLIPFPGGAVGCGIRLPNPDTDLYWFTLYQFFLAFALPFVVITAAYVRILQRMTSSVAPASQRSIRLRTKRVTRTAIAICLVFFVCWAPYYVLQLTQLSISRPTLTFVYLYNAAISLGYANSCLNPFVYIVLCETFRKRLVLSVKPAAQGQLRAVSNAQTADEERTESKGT
T3 sequence (P41968 whole entry): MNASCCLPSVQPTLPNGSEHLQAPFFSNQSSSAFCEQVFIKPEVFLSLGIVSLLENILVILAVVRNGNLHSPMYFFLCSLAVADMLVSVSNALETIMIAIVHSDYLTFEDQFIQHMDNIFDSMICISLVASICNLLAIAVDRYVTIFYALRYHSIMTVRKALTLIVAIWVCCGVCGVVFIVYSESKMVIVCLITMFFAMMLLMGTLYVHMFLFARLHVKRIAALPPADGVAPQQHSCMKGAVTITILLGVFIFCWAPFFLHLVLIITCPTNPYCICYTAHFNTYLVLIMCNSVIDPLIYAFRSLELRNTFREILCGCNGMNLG
T2 sequence (P41145 whole entry): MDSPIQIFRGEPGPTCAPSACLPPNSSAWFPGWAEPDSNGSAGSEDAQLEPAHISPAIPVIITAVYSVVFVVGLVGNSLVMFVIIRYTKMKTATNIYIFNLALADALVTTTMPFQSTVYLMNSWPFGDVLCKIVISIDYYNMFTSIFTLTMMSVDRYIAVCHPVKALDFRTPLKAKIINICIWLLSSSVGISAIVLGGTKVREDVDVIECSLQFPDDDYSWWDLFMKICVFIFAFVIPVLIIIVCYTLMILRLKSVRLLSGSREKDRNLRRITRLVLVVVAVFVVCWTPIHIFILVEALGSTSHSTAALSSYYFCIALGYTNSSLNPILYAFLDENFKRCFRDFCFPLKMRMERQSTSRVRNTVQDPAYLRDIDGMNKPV
T1 sequence (P41143 whole entry): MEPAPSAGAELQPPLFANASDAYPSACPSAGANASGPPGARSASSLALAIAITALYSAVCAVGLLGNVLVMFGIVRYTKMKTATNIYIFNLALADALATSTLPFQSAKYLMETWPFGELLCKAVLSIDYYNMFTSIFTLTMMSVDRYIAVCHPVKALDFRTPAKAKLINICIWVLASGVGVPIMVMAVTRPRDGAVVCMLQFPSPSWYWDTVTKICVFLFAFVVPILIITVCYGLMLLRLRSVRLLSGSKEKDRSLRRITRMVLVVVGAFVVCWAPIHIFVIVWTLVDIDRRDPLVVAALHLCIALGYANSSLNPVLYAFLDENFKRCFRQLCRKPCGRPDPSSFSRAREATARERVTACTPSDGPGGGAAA

SMILES	A1: inhibition of radioligand binding, human δ-opioid (DOP) [1]	A2: inhibition of radioligand binding, human κ-opioid (KOP) [2]	A3: inhibition of radioligand binding, human melanocortin (MC3) [3]	A4: inhibition of radioligand binding, human melanocortin (MC4) [4]	A5: inhibition of radioligand binding, human melanocortin (MC5) [5]	A6: inhibition of radioligand binding, human melanin-concentrating hormone (MCH1) ([6]; [125I]-S36057)	A8: inhibition of radioligand binding, human neurokinin (NK1) [8]	A11: inhibition of radioligand binding, mouse urotensin (mUR2) [11]	A1: inhibition of radioligand binding [1]	A2: inhibition of radioligand binding [2]	A3: inhibition of radioligand binding [3]	A4: inhibition of radioligand binding [4]	A5: inhibition of radioligand binding [5]	A6: inhibition of radioligand binding [6]	A7: inhibition of radioligand binding [7]	A8: inhibition of radioligand binding [8]	A9: inhibition of radioligand binding [9]	A10: inhibition of radioligand binding [10]	A11: inhibition of radioligand binding [11]	other results
COCC1OC(OCc2ccccc2)C(NC(=O)CNC(=N)N)C(OCc2ccc(Cl)cc2)C1O (stereo not shown) [compound 177]																				A1 radioligand binding, percentage inhibition [1]: − (“−” indicates less than 50% inhibition at 10 μM); A2 radioligand binding, percentage inhibition [2]: − (“−” indicates less than 50% inhibition at 10 μM); A3 radioligand binding, percentage inhibition [3]: + (“+” indicates greater than 50% inhibition at 10 μM); A4 radioligand binding, percentage inhibition [4]: + (“+” indicates greater than 50% inhibition at 10 μM); A5 radioligand binding, percentage inhibition [5]: + (“+” indicates greater than 50% inhibition at 10 μM); A6 radioligand binding, percentage inhibition ([6]; [125I]-S36057): − (“−” indicates less than 50% inhibition at 10 μM); A7 radioligand binding, percentage inhibition [7]: − (“−” indicates less than 50% inhibition at 10 μM); A8 radioligand binding, percentage inhibition [8]: + (“+” indicates greater than 50% inhibition at 10 μM); A9 radioligand binding, percentage inhibition [9]: − (“−” indicates less than 50% inhibition at 10 μM); A10 radioligand binding, percentage inhibition [10]: − (“−” indicates less than 50% inhibition at 10 μM); A11 radioligand binding, percentage inhibition [11]: − (“−” indicates less than 50% inhibition at 10 μM)
N=C(N)NCCC(=O)N[C@H]1C(OCc2ccc(Cl)cc2)O[C@H](COCc2ccc3ccccc3c2)[C@@H](O)[C@@H]1OCc1ccc(Cl)cc1 (stereo partly shown) [compound 522]	− (“−” indicates less than 50% inhibition at 10 μM)	+ (“+” indicates greater than 50% inhibition at 10 μM)	+ (“+” indicates greater than 50% inhibition at 10 μM)	+ (“+” indicates greater than 50% inhibition at 10 μM)	+ (“+” indicates greater than 50% inhibition at 10 μM)	+ (“+” indicates greater than 50% inhibition at 10 μM)	+ (“+” indicates greater than 50% inhibition at 10 μM)	− (“−” indicates less than 50% inhibition at 10 μM)												A7: inhibition of radioligand binding, human μ-opioid (MOP) ([7]; 10 µM): − (“−” indicates less than 50% inhibition at 10 μM); A9: inhibition of radioligand binding, human neuropeptide Y (NPY-Y1) ([9]; 10 µM): + (“+” indicates greater than 50% inhibition at 10 μM); A10: inhibition of radioligand binding, human opioid (ORL1) [10]: + (“+” indicates greater than 50% inhibition at 10 μM)
COCC1OC(OCc2ccc(Cl)cc2)C(NC(=O)CCCNC(=N)N)C(OCc2ccccc2)C1O (stereo not shown) [compound 198]									− (“−” indicates less than 50% inhibition at 10 μM)	− (“−” indicates less than 50% inhibition at 10 μM)	− (“−” indicates less than 50% inhibition at 10 μM)	− (“−” indicates less than 50% inhibition at 10 μM)	+ (“+” indicates greater than 50% inhibition at 10 μM)	− (“−” indicates less than 50% inhibition at 10 μM)	− (“−” indicates less than 50% inhibition at 10 μM)	+ (“+” indicates greater than 50% inhibition at 10 μM)	− (“−” indicates less than 50% inhibition at 10 μM)	− (“−” indicates less than 50% inhibition at 10 μM)	− (“−” indicates less than 50% inhibition at 10 μM)	
COCC1OC(OCCc2ccccc2)C(NC(=O)CN)C(OCc2ccccc2)C1O (stereo not shown) [compound 214]									− (“−” indicates less than 50% inhibition at 10 μM)	− (“−” indicates less than 50% inhibition at 10 μM)	− (“−” indicates less than 50% inhibition at 10 μM)	− (“−” indicates less than 50% inhibition at 10 μM)	− (“−” indicates less than 50% inhibition at 10 μM)	− (“−” indicates less than 50% inhibition at 10 μM)	− (“−” indicates less than 50% inhibition at 10 μM)	+ (“+” indicates greater than 50% inhibition at 10 μM)	− (“−” indicates less than 50% inhibition at 10 μM)	− (“−” indicates less than 50% inhibition at 10 μM)	− (“−” indicates less than 50% inhibition at 10 μM)	
N=C(N)NCC(=O)N[C@H]1C(OCc2ccc(Cl)cc2)O[C@H](COCc2ccc(Cl)cc2)[C@@H](O)[C@@H]1OCc1ccc2ccccc2c1 (stereo partly shown) [compound 515]	− (“−” indicates less than 50% inhibition at 10 μM)	− (“−” indicates less than 50% inhibition at 10 μM)	+ (“+” indicates greater than 50% inhibition at 10 μM)	+ (“+” indicates greater than 50% inhibition at 10 μM)	+ (“+” indicates greater than 50% inhibition at 10 μM)	+ (“+” indicates greater than 50% inhibition at 10 μM)	+ (“+” indicates greater than 50% inhibition at 10 μM)	− (“−” indicates less than 50% inhibition at 10 μM)												A7: inhibition of radioligand binding, human μ-opioid (MOP) [7]: − (“−” indicates less than 50% inhibition at 10 μM); A9: inhibition of radioligand binding, human neuropeptide Y (NPY-Y1) [9]: − (“−” indicates less than 50% inhibition at 10 μM); A10: inhibition of radioligand binding, human opioid (ORL1) ([10]; 10 µM): + (“+” indicates greater than 50% inhibition at 10 μM)
